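Interpolation was linear, between the two tested concentrations surrounding the appropriate level; five concentrations were tested over 48 hours in 96-well plates. At the TGI there is no net growth.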
Legend:
Test in all cases: growth of human tumour cells (NCI), 48 h
[1] = test system: 786-0 renal
[2] = test system: A498 renal
[3] = test system: A549 NSCLC
[4] = test system: ACHN renal
[5] = test system: BT-549 breast
[6] = test system: CAKI-1 renal
[7] = test system: CCRF-CEM leukemia
[8] = test system: COLO 205 colon
[9] = test system: DU-145 prostate
[10] = test system: EKVX NSCLC
[11] = test system: HCC-2998 colon
[12] = test system: HCT-116 colon
[13] = test system: HCT-15 colon
[14] = test system: HL-60(TB) leukemia
[15] = test system: HOP-62 NSCLC
[16] = test system: HOP-92 NSCLC
[17] = test system: HS 578T breast
[18] = test system: HT29 colon
[19] = test system: IGROV1 ovarian
[20] = test system: K-562 leukemia
[21] = test system: KM12 colon
[22] = test system: LOX IMVI melanoma
[23] = test system: M14 melanoma
[24] = test system: MALME-3M melanoma
[25] = test system: MCF7 breast
[26] = test system: MDA-MB-231 breast
[27] = test system: MDA-MB-435
[28] = test system: MDA-N
[29] = test system: MOLT-4 leukemia
[30] = test system: NCI-H226 lung
[31] = test system: NCI-H23 lung
[32] = test system: NCI-H460 lung
[33] = test system: NCI-H522 lung
[34] = test system: NCI/ADR-RES ovarian
[35] = test system: OVCAR-3 ovarian
[36] = test system: OVCAR-4 ovarian
[37] = test system: OVCAR-5 ovarian
[38] = test system: OVCAR-8 ovarian
[39] = test system: PC-3 prostate
[40] = test system: RPMI-8226 leukemia
[41] = test system: RXF 393 renal
[42] = test system: SF-268 CNS
[43] = test system: SF-295 CNS
[44] = test system: SF-539 CNS
[45] = test system: SK-MEL-2 melanoma
[46] = test system: SK-MEL-28 melanoma
[47] = test system: SK-MEL-5 melanoma
[48] = test system: SK-OV-3 ovarian
[49] = test system: SN12C renal
[50] = test system: SNB-19 CNS
[51] = test system: SNB-75 CNS
[52] = test system: SR leukemia
[53] = test system: SW-620 colon
[54] = test system: T-47D breast
[55] = test system: TK-10 renal
[56] = test system: U251 CNS
[57] = test system: UACC-257 melanoma
[58] = test system: UACC-62 melanoma
[59] = test system: UO-31 renal
[60] = test system: KM20L2 colon
[61] = test system: DLD-1 colon
[62] = test system: LXFL 529 NSCLC
[63] = test system: SNB-78 CNS

`CC(=O)Oc1cc2c(cc1OCC(F)(F)F)[C@H]1CC[C@]3(C)[C@@H](OC(C)=O)CC[C@H]3[C@@H]1CC2=O` gave a TGI [1] of over 100 µM, a TGI [2] of 27 µM and a TGI [3] of 77.7 µM. The TGI [4] was 60 µM, the TGI [5] was over 77.7 µM and the TGI [6] was 47 µM. The TGI [7] was 40.1 µM, the TGI [8] was 89.6 µM and the TGI [9] was 51.6 µM. It also gave a TGI [10] of over 72.1 µM, a TGI [11] of 67.3 µM and a TGI [12] of 55 µM. The TGI [13] was over 88 µM, the TGI [14] was 34.7 µM and the TGI [15] was over 70 µM. The TGI [16] was 40.2 µM, the TGI [17] was 50.4 µM and the TGI [18] was over 63.8 µM. It also gave a TGI [19] of over 66.8 µM, a TGI [20] of over 100 µM and a TGI [21] of 74.9 µM. For the same compound, the TGI [22] was over 78 µM, the TGI [23] was over 78.6 µM and the TGI [24] was 47.9 µM. It also gave a TGI [25] of over 75.6 µM, a TGI [26] of 60.2 µM and a TGI [27] of over 72.1 µM. It also gave a TGI [28] of over 100 µM, a TGI [29] of 38.8 µM and a TGI [30] of over 100 µM. The TGI [31] was over 68.8 µM, the TGI [32] was over 100 µM and the TGI [33] was over 70 µM. It also gave a TGI [34] of 43.6 µM, a TGI [35] of 45.6 µM and a TGI [36] of 63.8 µM. For the same compound, the TGI [37] was 44.5 µM, the TGI [38] was 57 µM and the TGI [39] was 37.6 µM. For the same compound, the TGI [40] was 68.8 µM, the TGI [41] was 50 µM and the TGI [42] was over 77.4 µM. The TGI [43] was 88.3 µM, the TGI [44] was 46.1 µM and the TGI [45] was 44.7 µM. For the same compound, the TGI [46] was over 67.6 µM, the TGI [47] was 49.2 µM and the TGI [48] was 59.7 µM. The TGI [49] was 57.6 µM, the TGI [50] was over 67 µM and the TGI [51] was 52.3 µM. It also gave a TGI [52] of over 77.9 µM, a TGI [53] of over 92.4 µM and a TGI [54] of over 89.1 µM. It also gave a TGI [55] of 46.2 µM, a TGI [56] of over 74.1 µM and a TGI [57] of 72.8 µM. For the same compound, the TGI [58] was 42.6 µM and the TGI [59] was 42.2 µM.

`COc1cccc2c(=O)oc(-c3ccccc3C)nc12` was tested, and the TGI [1] was over 100 µM, the TGI [2] was over 100 µM and the TGI [3] was over 100 µM. For the same compound, the TGI [4] was over 100 µM, the TGI [5] was 48.2 µM and the TGI [6] was over 100 µM. For the same compound, the TGI [7] was 73 µM, the TGI [8] was over 100 µM and the TGI [9] was over 100 µM. It also gave a TGI [10] of over 100 µM, a TGI [11] of over 100 µM and a TGI [12] of over 100 µM. It also gave a TGI [13] of over 100 µM, a TGI [14] of over 100 µM and a TGI [15] of 76.3 µM. It also gave a TGI [16] of over 100 µM, a TGI [17] of over 100 µM and a TGI [18] of over 100 µM. The TGI [19] was 96.8 µM, the TGI [20] was over 100 µM and the TGI [21] was over 100 µM. The TGI [22] was 36.6 µM, the TGI [24] was over 100 µM and the TGI [25] was over 100 µM. It also gave a TGI [26] of over 100 µM, a TGI [27] of over 100 µM and a TGI [28] of 39.1 µM. It also gave a TGI [29] of 68 µM, a TGI [30] of 57.8 µM and a TGI [31] of over 100 µM. The TGI [32] was over 100 µM, the TGI [33] was over 100 µM and the TGI [34] was over 100 µM. It also gave a TGI [35] of over 100 µM, a TGI [36] of 70.6 µM and a TGI [37] of over 100 µM. The TGI [38] was over 100 µM, the TGI [39] was over 100 µM and the TGI [40] was over 100 µM. For the same compound, the TGI [41] was over 100 µM, the TGI [42] was over 100 µM and the TGI [43] was 88.9 µM. The TGI [44] was 69.4 µM, the TGI [45] was 67.5 µM and the TGI [46] was over 100 µM. The TGI [47] was 57.7 µM, the TGI [48] was over 100 µM and the TGI [49] was 69.4 µM. For the same compound, the TGI [51] was over 100 µM, the TGI [52] was over 100 µM and the TGI [53] was over 100 µM. The TGI [54] was over 100 µM, the TGI [55] was over 100 µM and the TGI [56] was over 100 µM. The TGI [58] was over 100 µM and the TGI [59] was over 100 µM.

`CCCCCCC(=O)OC[n+]1ccc2c(C)c3[nH]c4ccc(OC)cc4c3c(C)c2c1` showed a TGI [2] of 2.02 µM, a TGI [3] of 1.88 µM and a TGI [4] of 4.88 µM. For the same compound, the TGI [6] was 6.69 µM, the TGI [7] was 1.63 µM and the TGI [8] was 1.34 µM. It also gave a TGI [9] of 3.59 µM, a TGI [11] of 2.68 µM and a TGI [13] of 1.24 µM. For the same compound, the TGI [14] was 1.7 µM, the TGI [16] was 3.49 µM and the TGI [19] was 3.83 µM. The TGI [20] was 1.31 µM, the TGI [60] was 5.32 µM and the TGI [22] was 1.5 µM. The TGI [24] was 14.2 µM, the TGI [25] was 1.75 µM and the TGI [26] was 2.36 µM. The TGI [27] was 1.79 µM, the TGI [28] was 1.59 µM and the TGI [32] was 1.02 µM. The TGI [35] was 4.84 µM, the TGI [37] was 2.75 µM and the TGI [38] was 2.12 µM. It also gave a TGI [39] of 1.51 µM, a TGI [40] of 2.1 µM and a TGI [43] of 1.59 µM. It also gave a TGI [44] of 1.67 µM, a TGI [45] of 9.35 µM and a TGI [48] of 3.83 µM. It also gave a TGI [49] of 1.91 µM, a TGI [52] of 3.46 µM and a TGI [53] of 1.78 µM. For the same compound, the TGI [54] was 11.5 µM, the TGI [55] was 10.4 µM and the TGI [59] was 5.48 µM.

`C#Cc1cccc(NC(=O)/C=C\C(=O)O)c1` gave a TGI [1] of over 100 µM, a TGI [2] of over 100 µM and a TGI [3] of over 100 µM. For the same compound, the TGI [4] was over 100 µM, the TGI [6] was over 100 µM and the TGI [7] was over 100 µM. For the same compound, the TGI [8] was over 100 µM, the TGI [61] was over 100 µM and the TGI [10] was over 100 µM. The TGI [12] was over 100 µM, the TGI [14] was over 100 µM and the TGI [16] was over 100 µM. For the same compound, the TGI [18] was over 100 µM, the TGI [20] was over 100 µM and the TGI [21] was over 100 µM. For the same compound, the TGI [60] was over 100 µM, the TGI [62] was over 100 µM and the TGI [24] was over 100 µM. The TGI [29] was over 100 µM, the TGI [30] was over 100 µM and the TGI [31] was over 100 µM. For the same compound, the TGI [32] was over 100 µM, the TGI [33] was over 100 µM and the TGI [36] was over 100 µM. The TGI [37] was over 100 µM, the TGI [38] was over 100 µM and the TGI [40] was over 100 µM. It also gave a TGI [42] of over 100 µM, a TGI [43] of over 100 µM and a TGI [45] of over 100 µM. For the same compound, the TGI [46] was over 100 µM, the TGI [47] was over 100 µM and the TGI [48] was over 100 µM. It also gave a TGI [49] of over 100 µM, a TGI [50] of over 100 µM and a TGI [51] of over 100 µM. The TGI [63] was over 100 µM, the TGI [53] was over 100 µM and the TGI [55] was over 100 µM. For the same compound, the TGI [56] was over 100 µM, the TGI [57] was over 100 µM and the TGI [58] was over 100 µM. The TGI [59] was over 100 µM.

— PubChem BioAssay (NCI)
